Reference: patent publication US6579693B1, “Genetically engineered yeast strains” (Aventis Pharma S.A., priority 1995, dated 2003)

T1: P450 cytochrome 1A1 (Homo sapiens, UniProt P04798)
T1 construct: made in house; host or cells: Saccharomyces cerevisiae W303-derived strains, e.g. W(R, LHb5); microsomal fractions
T1 sequence (P04798 1-512): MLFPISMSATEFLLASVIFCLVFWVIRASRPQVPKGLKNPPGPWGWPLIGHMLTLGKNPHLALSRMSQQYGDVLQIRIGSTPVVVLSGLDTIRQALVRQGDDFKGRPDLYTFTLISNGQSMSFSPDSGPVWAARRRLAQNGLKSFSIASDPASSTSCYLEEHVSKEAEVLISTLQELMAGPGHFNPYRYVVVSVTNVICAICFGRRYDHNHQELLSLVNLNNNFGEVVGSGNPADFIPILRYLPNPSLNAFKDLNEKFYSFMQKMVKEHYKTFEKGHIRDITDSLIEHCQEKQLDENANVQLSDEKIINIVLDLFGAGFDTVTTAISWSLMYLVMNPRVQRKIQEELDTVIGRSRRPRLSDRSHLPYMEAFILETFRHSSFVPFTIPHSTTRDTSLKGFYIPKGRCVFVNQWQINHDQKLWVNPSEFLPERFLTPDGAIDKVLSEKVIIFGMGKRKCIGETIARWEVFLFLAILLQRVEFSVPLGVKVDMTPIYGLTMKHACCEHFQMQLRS

B1: rabbit cytochrome b5: purified rabbit cytochrome b5 added in excess to microsomal fractions (protein, UniProt P00169 2-134, looked up)
Cytochrome b5: AAQSDKDVKYYTLEEIKKHNHSKSTWLILHHKVYDLTKFLEEHPGGEEVLREQAGGDATENFEDVGHSTDARELSKTFIIGELHPDDRSKLSKPMETLITTVDSNSSWWTNWVIPAISALIVALMYRLYMADD

Key:
W(Ghr, ΔB) clones = assay: resistance of yeast clones to ketoconazole; type: cell-based, S. cerevisiae; conditions: three W(Ghr, ΔB) clones, human reductase under GAPDH promoter
Protocol: The second selection: the resistance of the W(Ghr, ΔB) clones to ketoconazole was evaluated (Patent No. WO94/01564) in order to verify the activity of the human reductase expressed under the control of the GAPDH promoter. Three different clones are resistant to 20 mg of ketoconazole/ml, while the W(hR) strain, in which the human reductase is expressed under the control of the GAL10-CYC1 promoter, is only resistant to from 1 to 5 mg/ml under the same conditions.

P450 cytochrome 1A1 = biological target: T1, P450 cytochrome 1A1; assay: EROD activity test on microsomes (O-deethylation of 7-ethoxyresorufin); type: biochemical; conditions: microsomes of strain W(R, LHb5), rabbit cytochrome b5 added
Protocol: The P450 cytochrome 1A1 catalyses the O-deethylation of 7-ethoxyresorufin. The product of the reaction, i.e. resorufin (7-hydroxyphenoxazine), fluoresces at 586 nm after excitation at 530 nm. The quantity of resorufin formed per unit time corresponds to the rate of resorufin accumulation.
The incubation mixture comprises:
2 μl of a microsomal suspension (between 20 and 50 μg of microsomal protein) in 1 ml of pH 7.4 TE buffer containing 50 μM NADPH and 2.5 μM 7-ethoxyresorufin. In order to determin the effect of rabbit cytochrome b5 on catalytic efficacy, the microsomal fractions are subjected to prior incubation in the cold in the presence of an excess of purified cytochrome.

Molecule	ketoconazole concentration to which the clones are resistant (W(Ghr, ΔB) clones)	turnover (P450 cytochrome 1A1)
CC(=O)N1CCN(c2ccc(OCC3COC(Cn4ccnc4)(c4ccc(Cl)cc4Cl)O3)cc2)CC1 (centres unmarked) [ketoconazole]	20 mg/mL	–
B1	–	27 pmol of metabolite/pmol of cytochrome P450 per min
